Results: patent US10806794B2, “Protease inhibitors having enhanced features” (priority 2008, dated 2020)
Where “and” joins values, the source holds several entries; their conditions need not be identical. Equal values may be shown once. Read-outs that look alike come from different tables or passages of the source.

Columns and labels:
[1] = tested on: HIV-1 HT/92/599; assay: HIV-1 reverse transcriptase activity after infection of fresh human PBMCs; format: cell-based
Procedure, shortened: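 PHA-P/IL-2-stimulated fresh human PBMCs infected with HIV-1; supernatant reverse transcriptase activity measured by tritiated TTP incorporation on poly rA/oligo dT, 90 min at 37° C. Toxicity from 7-day uninfected PBMC culture read by XTT; TI = TC50/EC50.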

[2] = Metabolic stability in human liver microsomes; conditions: for CLint ± SEM / t1/2: 3 μM;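 on t1/2: microsomal protein 0.5 mg/mL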
Procedure, shortened: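 Substrate depletion: compounds at 3 μM final with pooled mixed-sex human liver microsomes (0.5 mg/mL) in 0.1 M phosphate pH 7.4 at 37 °C. Remaining parent quantified by LC-MS/MS.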

[3] = tested on: HIV-1Ba-L; assay: Anti-HIV-1 activity in monocyte-derived dendritic cells (reverse transcriptase activity); format: cell-based
Procedure: Freshly separated human PBMCs from a single donor were suspended in DPBS at 4×10^6 cells/mL and incubated in a 75 cm^2 cell culture flask for 90 minutes at 37° C., 5% CO2. Non-adherent cells were removed by washing with DPBS. Differentiation to dendritic cells was induced by 7 day incubation in RPMI 1640 medium supplemented with 10% fetal bovine serum, 2 mmol/L L-glutamine, 25 mM HEPES, 100 Units/mL penicllin, 10 μg/mL streptomycin, 50 ng/mL recombinant human granulocyte-macrophage-colony stimulating factor (GM-CSF), and 50 ng/mL recombinant human Interleukin (IL)-4 at 37° C., 5% CO2. The cells were further incubated for two days in the same cytokine cocktail supplemented with 10 ng/mL lipopolysaccharide (LPS). The monocyte-derived dendritic cells were then suspended at 10×10^6 cells/mL in complete medium (RPMI 1640 medium supplemented with 10% fetal bovine serum, 2 mmol/L L-glutamine, 25 mM HEPES, 100 Units/mL penicllin, 10 μg/mL streptomycin) and infected for 2 h at 37 C, 5% CO2 with HIV-1Ba-L at MOI=50-150 TCID50. […] Compound diluted in complete medium was added to cells. After seven days in culture, HIV-1 replication was quantified by measuring HIV-1 reverse transcriptase activity in cell-free supernatants using a standard radioactive tritiated thymidine triphosphate (TTP) polymerization incorporation assay. For each reaction, 1 μL of TTP (1 Ci/mL) was combined with 4 μL of dH2O, 2.5 μL of poly rA and oligo dT (0.5 mg/mL and 1.7 Units/mL, respectively), and 2.5 μL reaction buffer (125 μL 1 mol/L EGTA, 125 μL dH2O, 125 μL 20% Triton X-100, 50 μL 1 mol/L Tris, pH 7.4, 50 μL 1 mol/L DTT, 40 μL 1 mol/L MgCl2), then 10 μL of the resulting mixture was combined with 15 µL of virus-containing supernatant in a round-bottom microtiter plate and the plate incubated at 37° C. in a humidified incubator for 90 minutes. Following incubation, 10 μL of the reaction volume was spotted onto a DEAD filter mat, then washed 5×5 min with 5% sodium phosphate buffer, 2×1 minute in distilled water, 2×1 minute in 70% ethanol, then air dried. The filter mat was incubated with Opti-Fluor O scintillation fluid, and radioactivity quantified using a Wallac 1450 Microbeta Trilux liquid scintillation counter.

[4] = tested on: monocyte-derived dendritic cells; assay: Cytotoxicity in monocyte-derived dendritic cells (XTT); format: cell-based, human
Source text: Cell viability is directly proportional to the amount of reduced XTT product formed.

[5] = target: CYP1A2 (Homo sapiens (Human), UniProt P05177); assay: CYP450 inhibition in human liver microsomes: CYP1A2
Sequence of CYP1A2 (P05177 whole entry): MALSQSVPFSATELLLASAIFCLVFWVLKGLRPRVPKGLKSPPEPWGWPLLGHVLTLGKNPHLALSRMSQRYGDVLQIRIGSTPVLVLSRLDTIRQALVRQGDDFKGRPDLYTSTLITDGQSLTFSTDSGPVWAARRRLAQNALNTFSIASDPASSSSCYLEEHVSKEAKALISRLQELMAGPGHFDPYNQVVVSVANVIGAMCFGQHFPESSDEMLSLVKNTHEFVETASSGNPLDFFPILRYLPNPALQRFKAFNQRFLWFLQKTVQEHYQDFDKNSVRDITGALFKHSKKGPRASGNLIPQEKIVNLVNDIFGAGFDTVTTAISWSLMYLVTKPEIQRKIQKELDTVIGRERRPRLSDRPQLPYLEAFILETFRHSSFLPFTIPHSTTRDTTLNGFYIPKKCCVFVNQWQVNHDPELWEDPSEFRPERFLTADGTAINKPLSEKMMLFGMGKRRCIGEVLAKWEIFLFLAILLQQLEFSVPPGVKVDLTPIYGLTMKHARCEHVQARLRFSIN

[6] = tested on: PBMCs; assay: PBMC cytotoxicity (XTT); format: cell-based, human; conditions: 7 days
Procedure: Mononuclear cells were isolated from fresh human peripheral blood cells by Ficoll-Hypaque density gradient by centrifugation at 600 g for 30 minutes. Banded peripheral blood mononuclear cells (PBMCs) were aspirated from the resulting interface and washed with phosphate buffered saline by low speed centrifugation. Cell viability was evaluated by Trypan Blue dye exclusion. […] Plates were incubated at 37° C., 5% CO2 for 7 days prior to cytotoxicity evaluation. XTT measurement for cytotoxicity.

[7] = tested on: PBMCs; assay: PBMC macromolecule synthesis (tritiated precursor incorporation); format: cell-based, human; conditions: for Thymidine Incorporation (PBMC) TC50: DNA synthesis; for Uridine Incorporation (PBMC) TC50: RNA synthesis; for Leucine Incorporation (PBMC) TC50: protein synthesis
Procedure: Cellular macromolecule synthesis was evaluated using tritiated precursor incorporation assays. PBMCs (5×10^4 cells/well) were cultured in the presence or absence of test compound for 7 days at 37 C, 5% CO2 in a 96-well microtiter plate. On day 6 of the incubation, 1 uCi of [methyl-3H]-thymidine for DNA synthesis, [5-3H]-uridine for RNA synthesis, or [3,4,5-3H]-leucine for protein synthesis was added to compound-treated cells, and the plate was further incubated for 16 hours. The cells were transferred to a glass fiber filtermat using an Inotech cell harvester. The filtermats were washed with distilled water then sealed in a bag with scintillation fluid. Incorporated radioactivity was measured using a Wallac scintillation counter.

[8] = read-out: PBMC/HIV-1HT/92/599 EC50 ± SD, seven days, reverse transcriptase activity
[9] = dendritic cells, first determination, read-out: EC50 First
[10] = dendritic cells, mean of three, read-out: Mean EC50
[11] = dendritic cells, second determination, read-out: EC50 Second
[12] = dendritic cells, third determination, read-out: EC50 Third
[13] = read-out: CYP1A2 IC50 Phenacetin, probe substrate phenacetin

SMILES | EC50 [1, 8] | CLint ± SEM ([2]; human liver microsomes) [μL/min/mg protein] | t1/2 ([2]; human liver microsomes) [min] | EC50 [3, 9] [nM] | EC50 [3, 10] [nM] | EC50 [3, 11] [nM] | EC50 [3, 12] [nM] | TC50 [4] [nM] | IC50 [5, 13] [nM] | XTT (PBMC) TC50 [6] [nM] | Thymidine Incorporation (PBMC) TC50 [7] [nM] | Uridine Incorporation (PBMC) TC50 [7] [nM] | Leucine Incorporation (PBMC) TC50 [7] [nM] | other results
COCCOCCOCCOCCOCCOCCOCCOC(=O)NC(C(=O)NC(Cc1ccccc1)C(O)CN(Cc1ccc(-c2ccccn2)cc1)NC(=O)C(NC(=O)OC)C(C)(C)C)C(C)(C)C (stereo not drawn) [mono-mPEG7-Atazanavir] | 163 ± 30 nM | 71.0 ± 5.63 | 19.5 | 0.13 | 4.03 | 11.7 | 0.25 | >1000 | > 25000 | – | – | – | – | –
COCCOCCOCCOCCOCCOc1ccc(C[C@H](NC(=O)O[C@H]2CO[C@H]3OCC[C@H]32)C(O)CN(CC(C)C)S(=O)(=O)c2ccc(N)cc2)cc1 (stereo partly drawn) [mPEG5-O-Darunavir] | 90 ± 8 nM | 198 ± 22.1 | 7.00 | 60 | 56.7 | 60 | 50 | >200000 | – | >400000 | >400000 | >400000 | >400000 | –
COCCOCCOCCOCCOCCOC(=O)NC(C(=O)NC(Cc1ccccc1)C(O)CN(Cc1ccc(-c2ccccn2)cc1)NC(=O)C(NC(=O)OC)C(C)(C)C)C(C)(C)C (stereo not drawn) [mono-mPEG5-Atazanavir] | – | 108 ± 9.75 | 12.9 | 0.15 | 1.24 | 3.42 | 0.14 | >1000 | > 25000 | – | – | – | – | –
COCCOCCOCCOCCOCCOCCOC(=O)NC(C(=O)NC(Cc1ccccc1)C(O)CN(Cc1ccc(-c2ccccn2)cc1)NC(=O)C(NC(=O)OC)C(C)(C)C)C(C)(C)C (stereo not drawn) [mono-mPEG6-Atazanavir] | 108 nM and 117 nM and 60 nM | 112 ± 1.10 | 12.3 | 0.16 | 0.2 | 0.21 | 0.23 | >1000 | > 25000 | – | – | – | – | –
COCCOCCOCCOc1ccc(C[C@H](NC(=O)O[C@H]2CO[C@H]3OCC[C@H]32)C(O)CN(CC(C)C)S(=O)(=O)c2ccc(N)cc2)cc1 (stereo partly drawn) [mPEG3-O-Darunavir] | 27 ± 6 nM | 77.4 ± 9.14 | 17.9 | 0.17 | 5.9 | 0.84 | 16.7 | >200000 | – | >400000 | 109600 | 139400 | 218900 | –
COCCOCCOCCOCCOCCNc1ccc(S(=O)(=O)N(CC(C)C)CC(O)[C@H](Cc2ccccc2)NC(=O)O[C@H]2CO[C@H]3OCC[C@H]32)cc1 (stereo partly drawn) [mPEG5-N-Darunavir] | < 20 nM and 33 nM | 440 ± 19.0 | 3.15 | 8 | 16.7 | 2 | 40 | >200000 | – | 223500 | 41300 | 73200 | 98500 | –
COCCOC(=O)NC(C(=O)NC(Cc1ccccc1)C(O)CN(Cc1ccc(-c2ccccn2)cc1)NC(=O)C(NC(=O)OC)C(C)(C)C)C(C)(C)C (stereo not drawn) [mono-mPEG1-Atazanavir] | < 20 nM | 181 ± 0.640 | 7.65 | 0.16 | 0.183 | 0.25 | 0.14 | >1000 | > 25000 | – | – | – | – | –
COCCOCCOCCOCCOCCOCCOCCNc1ccc(S(=O)(=O)N(CC(C)C)CC(O)[C@H](Cc2ccccc2)NC(=O)O[C@H]2CO[C@H]3OCC[C@H]32)cc1 (stereo partly drawn) [mPEG7-N-Darunavir] | 73 ± 12 nM | 356 ± 7.74 | 3.89 | 70 | 63.3 | 40 | 80 | >200000 | – | 381300 | – | – | – | –
CC(C)CN(C[C@@H](O)[C@H](Cc1ccccc1)NC(=O)O[C@H]1CO[C@H]2OCC[C@H]21)S(=O)(=O)c1ccc(N)cc1 [Darunavir, reference compound] | – | – | – | – | – | – | – | >200000 | – | 328400 | 184300 | 189300 | 258300 | EC50 ([3]; Human immunodeficiency virus 1, Dendritic cell, read-out: EC50 First, dendritic cells, first determination): 2 nM; EC50 ([3]; Human immunodeficiency virus 1, Dendritic cell, read-out: EC50 Second, dendritic cells, second determination): 3 nM; EC50 ([3]; Human immunodeficiency virus 1, Dendritic cell, read-out: EC50 Third, dendritic cells, third determination): 3 nM; EC50 ([3]; Human immunodeficiency virus 1, Dendritic cell, read-out: Mean EC50, dendritic cells, mean of three): 2.7 nM
COC(=O)N[C@H](C(=O)N[C@@H](Cc1ccccc1)[C@@H](O)CN(Cc1ccc(-c2ccccn2)cc1)NC(=O)[C@@H](NC(=O)OC)C(C)(C)C)C(C)(C)C [Atazanavir, reference compound] | – | – | – | – | – | – | – | – | – | 109400 | 81100 | 87200 | 94700 | IC50 [5]: 20600 nM
COCCOCCOCCOC(=O)NC(C(=O)NC(Cc1ccccc1)C(O)CN(Cc1ccc(-c2ccccn2)cc1)NC(=O)C(NC(=O)OC)C(C)(C)C)C(C)(C)C (stereo not drawn) [mono-mPEG3-Atazanavir, {1-[N′-[2-Hydroxy-3-(2-{2-[2-(2-methoxy-ethoxy)-ethoxy]-ethoxycarbonylamino}-3,3-dimethyl-butyrylamino)-4-phenyl-butyl]-N′-(4-pyridin-2-yl-benzyl)-hydrazinocarbonyl]-2,2-dimethyl-propyl}-carbamic Acid Methyl Ester] | 30 nM and 20.4 nM and 20 nM and 18.7 nM | 172 ± 1.39 | 8.04 | – | – | – | – | – | – | 338900 | 36600 | 27700 | 82000 | EC50 ([1]; Human immunodeficiency virus 1, PBMC, 168 h, read-out: PBMC/HIV-1HT/92/599 EC50 ± SD, seven days, reverse transcriptase activity): < 20 nM; microsomal CLint at 3 μM ([2]; both, human, pooled human liver microsomes, pH 7.4, CLint ± SEM, human liver microsomes): 248 ± 31.7 µL/min/mg; half-life at 3 μM ([2]; both, human, pooled human liver microsomes, pH 7.4, t1/2, human liver microsomes): 5.58 min; IC50 [5]: > 25000 nM
